Results as given in US8633177B2, “Nitroxyl (HNO) releasing compounds and uses thereof in treating diseases” (The United States of America, as represented by the …, priority 2010, dated 2014).

Assays:
[1] = NO quantified by chemiluminescence during hydrolysis; assay type: physicochemical; details: 1 mM ferricyanide solution
Description: In addition to HNO measurements as described above by reductive nitrosylation of metmyoglobin, NO was quantified by chemiluminescence assay, N2O by gas chromatography, and nitrite ion by the Griess assay.
Detection of HNO was also carried out using the chemiluminescence method in, 1 mM ferricyanide solution.

[2] = Kinetic profile of NO and HNO release / stability in buffer; assay type: physicochemical; details: phosphate buffer pH 7.4, several hours
Description: The newly synthesized HNO-releasing aspirin (IPA/NO-aspirin, 4) and NO-releasing aspirin (DEA/NO-aspirin, 8) were evaluated for the kinetic profile of NO and HNO release in buffer and cells.

[3] = NO release measured with NO specific electrode, 2% serum; assay type: physicochemical; details: 100 μM; for NO release: 2% serum; for [NO]pA: phosphate buffer pH 7.4, 2% serum
Description: The release of NO was evaluated using an NO specific electrode. The NO electrode was stabilized in phosphate buffer pH 7.4 containing 2% serum. Compounds 4 and 8 in DMSO were added and the NO signal was measured. The experiment was repeated in the presence of 1 mM sodium ferricyanide.
Since there is no direct method for detection of HNO, 1 mM ferricyanide solution was used, which converts HNO to NO that can then be detected using NO electrode. K3Fe(CN)6+HNO ? NO

HUVECs = test: MTT assay, normal endothelial cell line HUVECs; assay type: cell-based
Prostaglandin E2 = test: PGE2 production, prostaglandin E2 EIA kit; assay type: cell-based; details: 24 h
Description: Cells were plated at a concentration of 50,000 cells per well and grown overnight. Then 25, 50, and 100 μM of DMSO, IPA/NO-aspirin, and DEA/NO-aspirin were added to the corresponding well for 24 h and incubated at 37° C. The supernant was then analyzed for PGE2 activity using prostaglandin E2 EIA kit (Cayman Cat No. 514010).

caspase-3 [4] = test: Caspase-3 fluorescence assay, MDA-MB-468; assay type: cell-based, human; details: 12 h
Description: (§1) The caspase-3 activity in the presence of IPA/NO-ASA and DEA/NO-ASA was measured using caspase-3 fluorescence assay kit (Cat No. 10009135, Cayman Chemical). Cells were plated at a concentration of 50,000 cells per well in a 96 well plate and grown overnight. Then the cells were treated with different concentrations of the compounds and controls for 12 h. After 12 h, the plate was centrifuged at 800 g and the media was removed by aspiration. 100 μL of lysis buffer was added to each well and the plate was incubated for […] at room temperature. 100 μL of a caspase-3 substrate solution was added to each well and incubated for 30 min after which the fluorescence was read at excitation of 485 nm and emission of 535 nm.

caspase-3 [5] = test: Caspase-3 fluorescence assay, MCF-7; assay type: cell-based, human; details: 12 h
Description: as §1

[6] = tested on: reactive oxygen species (ROS); test: ROS level with DCF; assay type: cell-based; details: 100 μM
Description: To investigate the role of ROS in apoptosis, the ROS level was studied in the presence of the compounds in a time dependent manner using 2′,7′-dichlorofluorescein (DCF) in all four cell lines. Cells were plated at a concentration of 30,000 cells per well and grown overnight. Cells were treated with 100 μM DCF (Sigma Aldrich) and incubated for 30 min at 37° C. The cells were then washed five times with PBS pH 7.4 and 100 μM of IPA/NO-aspirin, DEA/NO-aspirin, IPA/NO, DEA/NO and aspirin were added.

HUVEC cells = test: Tube formation (angiogenesis) on Matrigel; assay type: cell-based; details: 12 h, even at 1 μM, compared to control
Description: To determine the effect of NO and HNO releasing aspirin on angiogenesis, HUVEC cells were treated with the compounds and tube formation was studied after 12 h. Matrigel (50 μL) was added to each well in a 96 well plate and incubated for 2 h at 37° C. Cell suspension treated with different concentrations of IPA/NO-aspirin, DEA/NO-aspirin and controls was added to each well at a concentration of 20,000 cells per well. After 12 hours, tube formation was measured using a microscope.

p53 = test: Phosphorylation of p53 in MB-231 cells; assay type: cell-based, human; details: 50 μM IPA/NO-aspirin, 75 μM DEA/NO-aspirin
Description: MB-231 cells were plated at a concentration on 1E6 and grown for 24 h. Then the cells were serum starved overnight followed by treatment with 50 μM and 75 μM, respectively, of IPA/NO-aspirin and DEA/NO-aspirin for 3, 6, 12 h. The cells were harvested and lysed with lysis buffer (cell signaling). Cell lysate was centrifuged at 13,000 rpm for 20 min and the supernatant was transferred to fresh tube. Protein ([…]) of protein was loaded in each lane on a 15% tris-glycine gel and electrophoresis was completed at 120V.

[7] = molecular target: T1, glyceraldehyde-3-phosphate dehydrogenase (GAPDH) (Homo sapiens, UniProt P04406); test: GAPDH activity, MDA-MB-468; assay type: cell-based; parameters: endogenous in cells; host or cells: MDA-MB-468; details: MDA-MB-468, 100 μM
Description: (§2) Cells were plated at a concentration of 30,000 cells per well and grown overnight. Cells were treated with 100 μM IPA/NO-aspirin and DEA/NO-aspirin for 1, 3, and 6 h after which 200 μL of KDalert lysis buffer was added to each well. The plate was incubated at 4° C. for 20 min to lyse the cells. 10 μL of cell lysate was transferred to a clean 96 well plate and 90 μL of KDalert mastermix was added to each well and the fluorescence was measured at excitation of 540 nm and emission of 570 nm.

[8] = molecular target: T1, glyceraldehyde-3-phosphate dehydrogenase (GAPDH); test: GAPDH activity, MDA-MB-231; assay type: cell-based; parameters: endogenous in cells; host or cells: MDA-MB-231, MDA-MB-468, MCF-7, MCF-10A; details: MDA-MB-231, 100 μM
Description: as §2

T1 sequence (P04406 whole entry): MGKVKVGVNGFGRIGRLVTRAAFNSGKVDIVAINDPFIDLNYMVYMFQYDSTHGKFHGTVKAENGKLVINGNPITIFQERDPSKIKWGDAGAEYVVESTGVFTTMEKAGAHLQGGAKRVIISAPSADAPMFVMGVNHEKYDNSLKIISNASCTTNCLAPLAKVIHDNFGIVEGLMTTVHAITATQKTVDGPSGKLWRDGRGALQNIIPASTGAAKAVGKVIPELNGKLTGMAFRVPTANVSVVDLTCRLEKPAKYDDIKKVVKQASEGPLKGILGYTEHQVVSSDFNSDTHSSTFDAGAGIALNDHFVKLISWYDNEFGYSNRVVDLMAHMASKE

Row | Compound | NO/HNO release by chemiluminescence [1] | stability in phosphate buffer [2] | NO release [3] | [NO]pA ([3]; +Ferricyanide 1 mM) [pA] | [NO]pA ([3]; without ferricyanide) [pA] | cell death in MTT assay (HUVECs) | Prostaglandin E2 (Prostaglandin E2; 25 μM) [pg/mL] | Prostaglandin E2 (Prostaglandin E2; 50 μM) [pg/mL] | Prostaglandin E2 (Prostaglandin E2; 100 μM) [pg/mL] | Caspase-3 Activity (caspase-3 [4]; MDA-MB-468, 25 μM) [U/mL] | Caspase-3 Activity (caspase-3 [4]; MDA-MB-468, 50 μM) [U/mL] | Caspase-3 Activity (caspase-3 [4]; MDA-MB-468, 100 μM) [U/mL] | Caspase-3 Activity (caspase-3 [5]; MCF-7, 25 μM) [U/mL] | Caspase-3 Activity (caspase-3 [5]; MCF-7, 50 μM) [U/mL] | Caspase-3 Activity (caspase-3 [5]; MCF-7, 100 μM) [U/mL] | ROS level [6] | angiogenesis (tube formation) (HUVEC cells) | time point of activation of p53 phosphorylation (p53) [h] | GAPDH Activity ([7]; 1 h) [U/mL] | GAPDH Activity ([7]; 3 h) [U/mL] | also measured
1 | CCN(CC)[N+]([O-])=NOCOC(=O)c1ccccc1OC(C)=O [DEA/NO-aspirin, O^2-(Acetylsalicyloyloxymethyl)-1-(N,N-Diethylamino)-diazen-1-ium-1,2-diolate] | shows NO release | relatively stable | readily released NO | 5000 | 4600 | No significant cell death | 21 | 38 | 36 | 0.40 | 0.38 | 0.81 | 0.30 | 0.35 | 0.27 | much lower | reduced angiogenesis | 1 | 0.060 | 0.065 | GAPDH Activity ([7]; 6 h): 0.050 U/mL; GAPDH Activity ([8]; 1 h): 0.150 U/mL; GAPDH Activity ([8]; 3 h): 0.160 U/mL; GAPDH Activity ([8]; 6 h): 0.150 U/mL
2 | CC(=O)Oc1ccccc1C(=O)OCON=[N+]([O-])NC(C)C [IPA/NO-aspirin, O^2-(Acetylsalicyloyloxymethyl)-1-(N-isopropylamino)-diazen-1-ium-1,2-diolate] | showed both NO and HNO release | relatively stable | significantly lower NO production | 2100 | 1000 | No significant cell death | 17 | 14 | 13 | 0.60 | 0.60 | 0.50 | 0.30 | 0.60 | 0.58 | significant increase in ROS level | reduced angiogenesis | 10 | <0.010 | <0.010 | GAPDH Activity ([7]; 6 h): <0.010 U/mL; GAPDH Activity ([8]; 1 h): 0.120 U/mL; GAPDH Activity ([8]; 3 h): 0.070 U/mL; GAPDH Activity ([8]; 6 h): 0.050 U/mL
